Measured values: PubChem BioAssay (NCI)
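Assay format: 96-well plates, 48-hour exposure. GI50: concentration for 50% inhibition of growth. At the TGI there is no net growth.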 Where a SMILES comes first, the peptide text is derived from it. Bridges are numbered along the chain shown (N, C = ends). Roman numbers before positions name the chains, in order. [ ]: non-standard residue; d: D form. The star is where a group is joined. Quinoxaline2carbonyl = O=C(c1cnc2ccccc2n1)*; NMeV = CN[CH](C(=O)O)C(C)C; NMeC = CN[CH](CS)C(=O)O

Tests used:
Assay in all cases: NCI tumour cell line growth inhibition, 48 h
[1] = tested on: 786-0 renal
[2] = tested on: A549 NSCLC
[3] = tested on: CAKI-1 renal
[4] = tested on: RPMI-8226 leukemia
[5] = tested on: SK-MEL-2 melanoma
[6] = tested on: SK-MEL-28 melanoma
[7] = tested on: SN12C renal
[8] = tested on: T-47D breast
[9] = tested on: TK-10 renal
[10] = tested on: HOP-92 NSCLC

## CC1=CC(=O)C(O)C2(C)C1CC(O)C13COC4(C)C(OC(=O)C41)C(O)C23 (configuration not stated)
[1]
  GI50: 5.13 µM
  TGI: 27.4 µM
[2]
  GI50: 5.49 µM
  TGI: 34 µM
[3]
  GI50: 10.4 µM
  TGI: 54.4 µM
[4]
  GI50: 17.3 µM
  TGI: > 100 µM
[5]
  GI50: 6.36 µM
  TGI: 29.5 µM
[6]
  GI50: 7.32 µM
  TGI: > 100 µM
[7]
  GI50: 8.32 µM
  TGI: 32.7 µM
[8]
  GI50: 17.6 µM
  TGI: 66.5 µM
[9]
  GI50: 12.1 µM
  TGI: 44.3 µM

## COCCOCOc1ccc(OCOCCOC)c2c1C(=O)c1ccccc1C2=O
[1]
  TGI: > 100 µM
[2]
  TGI: > 100 µM
[3]
  TGI: > 93 µM
[10]
  TGI: > 100 µM
[5]
  TGI: > 100 µM
[6]
  TGI: > 100 µM
[7]
  TGI: > 100 µM
[9]
  TGI: > 100 µM

## CCOC1=C2N=C(Cc3ccccc3F)N=C2C(=O)c2ccccc21
[1]
  TGI: > 100 µM
[2]
  TGI: > 100 µM
[3]
  TGI: > 100 µM
[10]
  TGI: > 100 µM
[4]
  TGI: > 100 µM
[5]
  TGI: > 100 µM
[6]
  TGI: > 100 µM
[7]
  TGI: > 100 µM

## O=C(Cc1ccccc1)NN1C(=O)C(Cl)C1c1ccccc1O (configuration not stated)
[1]
  TGI: > 100 µM
[2]
  TGI: > 100 µM
[3]
  TGI: > 100 µM
[4]
  TGI: > 100 µM
[5]
  TGI: > 100 µM
[6]
  TGI: > 100 µM
[7]
  TGI: > 100 µM
[9]
  TGI: > 100 µM

## COc1cc(-c2cc(-c3cc([N+](=O)[O-])c(/C=N/NC(=O)c4ccncc4)o3)ccc2OC)ccc1C
[1]
  TGI: > 100 µM
[2]
  TGI: > 100 µM
[3]
  TGI: > 100 µM
[10]
  TGI: > 100 µM
[4]
  TGI: > 100 µM
[5]
  TGI: > 100 µM
[6]
  TGI: > 100 µM
[7]
  TGI: > 100 µM
[9]
  TGI: > 100 µM

## COC(=O)C(C)(C)N=CN(C)C
[1]
  TGI: > 100 µM
[2]
  TGI: > 100 µM
[3]
  TGI: > 100 µM
[10]
  TGI: > 100 µM
[5]
  TGI: > 100 µM
[6]
  TGI: > 100 µM
[7]
  TGI: > 100 µM
[9]
  TGI: > 100 µM

## COC(CN1C=C(Sc2ccccc2)CC1)OC
[1]
  TGI: > 100 µM
[2]
  TGI: > 100 µM
[3]
  TGI: > 100 µM
[10]
  TGI: 86.5 µM
[4]
  TGI: 50.7 µM
[5]
  TGI: 44.8 µM
[6]
  TGI: > 100 µM
[7]
  TGI: > 100 µM
[9]
  TGI: > 100 µM

## CCCCCCCCCCCCCP(=O)(O)NCC(N)=O
[1]
  TGI: > 100 µM
[2]
  TGI: > 100 µM
[10]
  TGI: > 100 µM
[4]
  TGI: > 100 µM
[5]
  TGI: > 100 µM
[6]
  TGI: > 100 µM
[7]
  TGI: > 100 µM
[9]
  TGI: > 100 µM

## COC(=O)CC1NC(=O)C1C1(C)OCCO1 (configuration not stated)
[1]
  TGI: > 100 µM
[2]
  TGI: > 100 µM
[4]
  TGI: > 100 µM
[5]
  TGI: > 100 µM
[6]
  TGI: > 100 µM
[7]
  TGI: > 100 µM
[9]
  TGI: > 100 µM

## Cc1c(C2=C(c3cn(C)c4ccccc34)C(=O)NC2=O)c2ccccc2n1C
[1]
  GI50: 3.56 µM
  TGI: > 25 µM
[2]
  GI50: 1.74 µM
  TGI: > 25 µM
[3]
  GI50: 1.81 µM
  TGI: > 25 µM
[4]
  GI50: > 13.8 µM
  TGI: > 25 µM
[5]
  GI50: 1.93 µM
  TGI: 24.3 µM
[6]
  GI50: > 22.3 µM
  TGI: > 25 µM
[7]
  GI50: 15.5 µM
  TGI: > 25 µM
[8]
  GI50: 4.07 µM
  TGI: > 25 µM
[9]
  GI50: 6 µM
  TGI: > 25 µM

## Cc1cc(N(CCC#N)CCC#N)ccc1/C=C1/N=C(c2ccccc2)N(N)C1=O
[1]
  TGI: > 100 µM
[2]
  TGI: > 100 µM
[3]
  TGI: > 100 µM
[10]
  TGI: 99.9 µM
[4]
  TGI: > 100 µM
[5]
  TGI: > 100 µM
[6]
  TGI: > 100 µM
[7]
  TGI: > 100 µM
[9]
  TGI: > 100 µM

## CCCCCCN(N)C(=O)CC#N
[1]
  TGI: > 100 µM
[2]
  TGI: > 100 µM
[3]
  TGI: > 100 µM
[10]
  TGI: > 100 µM
[4]
  TGI: 58.5 µM
[6]
  TGI: > 100 µM
[7]
  TGI: > 100 µM
[9]
  TGI: > 100 µM

## COc1ccc2c(c1OC)C(=O)OC2C1c2c(c([N+](=O)[O-])c3c(c2OC)OCO3)CCN1C (configuration not stated)
[1]
  GI50: > 100 µM
  TGI: > 100 µM
[2]
  GI50: > 100 µM
  TGI: > 100 µM
[3]
  GI50: > 100 µM
  TGI: > 100 µM
[5]
  GI50: > 100 µM
  TGI: > 100 µM
[6]
  GI50: > 100 µM
  TGI: > 100 µM
[7]
  GI50: > 100 µM
  TGI: > 100 µM
[8]
  GI50: 54.1 µM
  TGI: > 100 µM
[9]
  GI50: > 100 µM
  TGI: > 100 µM

## CC1(C)C2CCC13CS(=O)(=O)N1O[C@]13C(=O)O2 (some centres not stated)
[1]
  TGI: > 100 µM
[2]
  TGI: > 100 µM
[10]
  TGI: > 100 µM
[4]
  TGI: > 100 µM
[5]
  TGI: > 100 µM
[6]
  TGI: > 100 µM
[7]
  TGI: > 100 µM
[9]
  TGI: > 100 µM

## CC1NC(=O)C(NC(=O)c2cnc3ccccc3n2)COC(=O)C(C(C)C)N(C)C(=O)C2CSSCC(C(=O)N(C)C(C(C)C)C(=O)OCC(NC(=O)c3cnc4ccccc4n3)C(=O)NC(C)C(=O)N2C)N(C)C1=O (configuration not stated) (I: Quinoxaline2carbonyl-SA[NMeC][NMeV] / II: Quinoxaline2carbonyl-SA[NMeC][NMeV]; ester I:1-II:C, I:C-II:1; disulfide I:3-II:3; configuration not given here)
[1]
  TGI: 2.27 µM
[2]
  TGI: 2.78 µM
[3]
  TGI: > 48.7 µM
[10]
  TGI: > 35.7 µM
[4]
  TGI: < 0.01 µM
[5]
  TGI: < 0.01 µM
[6]
  TGI: < 0.01 µM
[9]
  TGI: > 5.39 µM

## COc1ccc(C2[C@@H](Cl)C(=O)N2c2cc(OC)c(OC)c(OC)c2)cc1Cl (some centres not stated)
[1]
  GI50: 0.0389 µM
  TGI: 10.1 µM
[2]
  GI50: 0.364 µM
  TGI: > 100 µM
[3]
  GI50: 0.146 µM
  TGI: > 100 µM
[10]
  GI50: 2.29 µM
  TGI: 85.9 µM
[4]
  GI50: 0.279 µM
  TGI: 3.47 µM
[5]
  GI50: 0.177 µM
  TGI: 22.5 µM
[6]
  GI50: 0.654 µM
  TGI: 87.3 µM
[7]
  GI50: 0.414 µM
  TGI: > 100 µM
[9]
  GI50: 0.94 µM
  TGI: 71.7 µM

## Cc1cc2c(c(C(=O)O)c1C)-c1cccc(F)c1C2=O
[1]
  TGI: > 100 µM
[2]
  TGI: > 100 µM
[3]
  TGI: > 100 µM
[4]
  TGI: > 100 µM
[5]
  TGI: > 100 µM
[6]
  TGI: > 100 µM
[7]
  TGI: > 100 µM
[9]
  TGI: > 100 µM

## CC(C)c1c2[nH]c3ccccc3c2c(C(C)C)c2[nH]c3ccccc3c12
[1]
  TGI: > 100 µM
[2]
  TGI: > 100 µM
[3]
  TGI: > 100 µM
[10]
  TGI: > 100 µM
[4]
  TGI: > 100 µM
[5]
  TGI: > 100 µM
[6]
  TGI: > 100 µM
[7]
  TGI: > 100 µM
[9]
  TGI: > 100 µM

## Cc1ccc(S(=O)OC2C3CC4CC(C3)CC2C4)cc1 (configuration not stated)
[1]
  TGI: > 100 µM
[2]
  TGI: > 100 µM
[3]
  TGI: > 100 µM
[10]
  TGI: > 100 µM
[4]
  TGI: > 100 µM
[6]
  TGI: > 100 µM
[7]
  TGI: > 100 µM
[9]
  TGI: > 100 µM

## CNS(=O)(=O)NNS(=O)(=O)c1ccc(Cl)cc1
[1]
  TGI: > 100 µM
[2]
  TGI: > 100 µM
[3]
  TGI: > 100 µM
[10]
  TGI: > 100 µM
[4]
  TGI: > 100 µM
[5]
  TGI: > 100 µM
[6]
  TGI: > 100 µM
[7]
  TGI: > 100 µM
[9]
  TGI: > 100 µM
